# Measured values published in patent US20180312473A1, “PHENAZINE DERIVATIVES AS ANTIMICROBIAL AGENTS” (priority 2015, published 2018).
# Where two headings read alike, the source gives them in different places.
# Assays:
# [1] = system: MRSA-2 (methicillin-resistant Staphylococcus aureus clinical isolate); assay: MIC assay (broth microdilution, CLSI); assay type: cell-based; settings: for MIC: read-out: MIC, MRSA-2
# [2] = system: Staphylococcus epidermidis (ATCC 12228); assay: MIC assay (broth microdilution, CLSI); assay type: cell-based; settings: Staphylococcus epidermidis
# [3] = system: Staphylococcus epidermidis (ATCC 35984), MRSE; assay: MIC assay (broth microdilution, CLSI); assay type: cell-based; settings: Staphylococcus epidermidis
# [4] = system: Enterococcus faecium (ATCC 700221), VRE; assay: MIC assay (broth microdilution, CLSI); assay type: cell-based
# in vitro = assay type: cell-based; settings: human
# Method: (§1) The cytotoxicities of select compounds of the invention against HeLa cells were determined. HeLa cytotoxicity was assessed using the LDH release assay described by CYTOTOX96 (Promega G1780). HeLa cells were grown in Dulbecco's Modified Eagle Medium (DMEM; Gibco) supplemented with 10% Fetal Bovine Serum (FBS) at 37° C. with 5% CO2. […] Triton X-100 (at 2% v/v) was used as the positive control for maximum lactate dehydrogenate (LDH) activity in this assay (e.g., complete cell death), while “medium only” lanes served as negative control lanes (e.g., no cell death). DMSO was used as the vehicle control. […] Finally, Stop Solution (50 μL) was added to the incubating plates, and the absorbance was measured at 490 nm.
# (§2) HeLa cytotoxicity was assessed using the LDH release assay described by CYTOTOX96 (Promega G1780). HeLa cells were grown in Dulbecco's Modified Eagle Medium (DMEM; Gibco) supplemented with 10% Fetal Bovine Serum (FBS) at 37° C. with 5% CO2. […] Triton X-100 (at 2% v/v) was used as the positive control for maximum lactate dehydrogenate (LDH) activity in this assay (e.g., complete cell death), while “medium only” lanes served as negative control lanes (e.g., no cell death). DMSO was used as our vehicle control. […] Finally, Stop Solution (50 μL) was added to the incubating plates and the absorbance was measured at 490 nm. Results are from three independent experiments (FIG. 19)
# HeLa cells = assay: in vitro; assay type: cell-based; settings: human, 24 h
# Method: as §1, §2
# human red blood cells = assay: Hemolysis assay with red blood cells; settings: 200 μM
# Method: The hemolysis activities of select compounds of the invention were determined. […] The washing was repeated three times with the buffer. In 96-well plate, test compounds were added to the buffer from DMSO stocks. […] The plate was then incubated for 1 hour at 37° C. After incubation, the plate was centrifuged for 5 minutes at 3,500 rpm. Then 80 μL of the supernatant was transferred to another 96-well plate, and the optical density (OD) was read at 405 nm. DMSO served as the negative control (0% hemolysis), while Triton X served as the positive control (100% hemolysis). The percent of hemolysis was calculated as (OD405 of the compound−OD405 of DMSO)/(OD405 of Triton X−OD405 of the buffer).
# The washing was repeated three times with the buffer. In 96-well plate, test compounds were added to the buffer from DMSO stocks. […] The plate was then incubated for 1 hour at 37° C. After incubation, the plate was centrifuged for 5 minutes at 3,500 rpm. Then 80 μL of the supernatant was transferred to another 96-well plate and the optical density (OD) was read at 405 nm. DMSO served as our negative control (0% hemolysis) while Triton X served as our positive control (100% hemolysis). The percent of hemolysis was calculated as (OD405 of the test compound−OD405 DMSO)/(OD405 Triton X−OD405 buffer) from three independent experiments.
# [5] = system: MRSA-2 planktonic cells and biofilms; assay: Calgary Biofilm Device (CBD) assay, MBC/MBEC; assay type: cell-based, Staphylococcus aureus; settings: for MBC: Staphylococcus aureus, MRSA
# [6] = system: MRSE (S. epidermidis ATCC 35984) planktonic cells and biofilms; assay: Calgary Biofilm Device (CBD) assay, MBC/MBEC; assay type: cell-based, Staphylococcus epidermidis; settings: Staphylococcus epidermidis; Table 8; read-out: MRSE 35984 MBC
# [7] = system: VRE (E. faecium ATCC 700221) planktonic cells and biofilms; assay: Calgary Biofilm Device (CBD) assay, MBC/MBEC; assay type: cell-based, Enterococcus faecium; settings: Enterococcus; Table 8; c lowest concentration tested; read-out: VRE 700221 MBC
# [8] = system: methicillin-resistant S. aureus (MRSA) strains; assay: MIC assay, values summarised over MRSA strains; assay type: cell-based, Staphylococcus aureus
# MRSA BAA-44 = assay: MIC assay (broth microdilution, CLSI); settings: Staphylococcus aureus, read-out: MIC, MRSA BAA-44
# A. baumannii 19606 = assay: MIC assay (broth microdilution, CLSI); assay type: cell-based, Acinetobacter baumannii
# P. aeruginosa (PAO1) = assay: MIC assay (broth microdilution, CLSI); assay type: cell-based
# K. pneumoniae 13883 = assay: MIC assay (broth microdilution, CLSI); assay type: cell-based, Klebsiella pneumoniae
# E. coli UAEC-1 = assay: MIC assay (broth microdilution, CLSI); assay type: cell-based
# MRSA-2 = assay: MIC assay with Tiron or metal(II) cation co-treatment; assay type: cell-based, Staphylococcus aureus; settings: for MIC: Staphylococcus aureus
# S. epidermidis 12228 = assay: as above; assay type: cell-based, Staphylococcus epidermidis; settings: for MIC: Staphylococcus epidermidis
# E. faecium 700221 (VRE) = assay: as above; assay type: cell-based, Enterococcus faecium; settings: for MIC: Enterococcus faecium, VRE
# MRSA BAA-1707 = assay: MIC assay (broth microdilution, CLSI); settings: Staphylococcus aureus, read-out: MIC, MRSA BAA-1707
# [9] = system: MRSA-1 (methicillin-resistant Staphylococcus aureus clinical isolate); assay: MIC assay (broth microdilution, CLSI); assay type: cell-based; settings: read-out: MIC, MRSA-1
# [10] = system: M. tuberculosis H37Ra (ATCC 25177); assay: Mycobacterium tuberculosis MIC assay; assay type: cell-based; settings: Table 7, read-out: MIC, M. tuberculosis H37Ra
# Method: (§3) The culture was then diluted with fresh medium until an OD600 of 0.01 was reached. […] The final DMSO concentration was maintained at 0.5%. […] Three rows were reserved for each compound. […] OD600 absorbance was recorded using SPECTRAMAX M5 (Molecular Devices). Data obtained from three independent experiments were analyzed using Excel.
# as §3, with “EXCEL.” for “Excel.”
# [11] = Staphylococcus aureus, MRSA, Table 7, a midpoint of 2-fold range, b lowest concentration tested
# [12] = ATCC12228, Table 2A, read-out: MIC, Staphylococcus epidermidis (ATCC 12228)
# [13] = ATCC12228, Table 7, b lowest concentration tested, read-out: MIC, S. epidermidis 12228
# [14] = Table 7, read-out: MIC, MRSE 35984
# [15] = Enterococcus faecium, Table 2A, read-out: MIC, Enterococcus faecium (ATCC 700221)
# [16] = Table 7, b lowest concentration tested, read-out: MIC, VRE 700221
# [17] = Table 8, a/b 2-/4-fold range in independent experiments, read-out: MRSA-2 MBC
# [18] = Acinetobacter baumannii, 19606; read-out: A. baumannii 19606 MIC
# [19] = Pseudomonas aeruginosa, PAO1; read-out: PAO1 MIC
# [20] = Klebsiella pneumoniae, 13883; read-out: K. pneumoniae 13883 MIC
# [21] = Escherichia coli, UAEC1; read-out: E. coli UAEC-1 MIC
# [22] = MRSA-2, + loss, − increase of activity
# [23] = S. epidermidis 12228, + loss, − increase of activity
# [24] = E. faecium 700221, + loss, − increase of activity
SMILES,"MIC [1, 11] [µM]","MIC [2, 12] [µM]","MIC [2, 13] [µM]","MIC [3, 14] [µM]","MIC [4, 15] [µM]","MIC [4, 16] [µM]",IC50 at 24 h (in vitro) [µM],"% Hemolysis (200 μM) (human red blood cells; human, 1 h, pH 7.2) [%]","% Hemolysis at 200 μM (human red blood cells; human, 1 h, pH 7.2) [%]","MBC ([5]; Table 4, read-out: MBC, MRSA-2) [µM]","MBC [5, 17] [µM]",MBC [6] [µM],MBC [7] [µM],MIC (MRSA BAA-44) [µM],MIC (A. baumannii 19606; [18]) [µM],MIC (P. aeruginosa (PAO1); [19]) [µM],MIC (K. pneumoniae 13883; [20]) [µM],MIC (E. coli UAEC-1; [21]) [µM],MIC (MRSA BAA-1707) [µM],further results
"Oc1c(Br)cc(Cl)c2nc3ccccc3nc12 [Compound 7, 2-Bromo-4-chloro-1-hydroxyphenazine]",1.56,1.56 to 3.13,2.35,1.56,6.25,6.25,> 100,≤1,≤1,46.9,46.9,11.7,7.8,1.56,,,,,,"MIC ([1]; Staphylococcus aureus, MRSA, Table 2A): 1.56 µM; MIC ([3]; Table 2A, read-out: MIC, Staphylococcus epidermidis (ATCC 35984)): 1.56 µM; IC50 (HeLa cells): > 100 µM; growth inhibition activity against at least one MRSA strain [8]: sub-micromolar; melting point: 212 to 214 °C"
Oc1ccc(Br)c2nc3cc(Br)c(Br)cc3nc12 [Compound 13],1.56,,2.35,3.13,,6.25,,,≤1,,> 200,> 200,> 200,1.56,> 100,> 100,> 100,> 100,0.56,"Fold Δ (Cu^2+) (MRSA-2; [22]): +8; Fold Δ (Fe^2+) (MRSA-2; [22]): +2; Fold Δ (Tiron) (MRSA-2; [22]): −125; MIC (MRSA-2; MRSA-2, 200 μM copper(II), read-out: MIC with Cu^2+): > 100 µM; MIC (MRSA-2; MRSA-2, 200 μM iron(II), read-out: MIC with Fe^2+): 25 µM; MIC (MRSA-2; MRSA-2, 1 mM Tiron, read-out: MIC with Tiron): 0.1 µM; MIC (MRSA-2; MRSA-2, no additive (Table 9), read-out: MIC): 12.5 µM; Fold Δ (Cu^2+) (S. epidermidis 12228; [23]): +500; Fold Δ (Tiron) (S. epidermidis 12228; [23]): n.a. (insignificant changes in MIC values (≤2-fold changes)); MIC (S. epidermidis 12228; S. epidermidis 12228, 200 μM CuSO4, read-out: MIC with Cu^2+): 50 µM; MIC (S. epidermidis 12228; S. epidermidis 12228, 1 mM Tiron, read-out: MIC with Tiron): 0.1 µM; MIC (S. epidermidis 12228; S. epidermidis 12228, no additive, read-out: MIC): 0.1 µM; Fold Δ (Cu^2+) (E. faecium 700221 (VRE); [24]): +64; Fold Δ (Tiron) (E. faecium 700221 (VRE); [24]): n.a. (insignificant changes in MIC values (≤2-fold changes)); MIC (E. faecium 700221 (VRE); E. faecium 700221, 200 μM CuSO4, read-out: MIC with Cu^2+): 25 µM; MIC (E. faecium 700221 (VRE); E. faecium 700221, 1 mM Tiron, read-out: MIC with Tiron): 0.39 µM; MIC (E. faecium 700221 (VRE); E. faecium 700221, no additive, read-out: MIC): 0.39 µM"
Oc1c(Br)cc(Br)c2nc3cc4ccccc4cc3nc12 [Compound 19],,,,,,,,,,,,,,75,,,,,50,"MIC ([1]; Staphylococcus aureus, MRSA): > 100 µM; MIC, MRSA-2 ([1]; Table 2B, a midpoint of 2-fold range, * partial growth inhibition at highest concentration): >100* μM; MIC ([1]; Table 7, a midpoint of 2-fold range, b lowest concentration tested): >100 µM; MIC ([9]; Staphylococcus aureus, MRSA): 12.5 µM; MIC ([9]; Table 2B, b lowest concentration tested): 12.5 µM; MIC ([2]; ATCC12228, read-out: MIC, S. epidermidis 12228): 12.5 µM; MIC ([2]; ATCC12228, read-out: MIC, Staphylococcus epidermidis (ATCC 12228)): 12.5 µM; % Hemolysis (200 μM) (human red blood cells; 1 h, 37 °C): ≤1%; % Hemolysis at 200 μM (human red blood cells; red blood cells): <1%; % Hemolysis at 200 μM (human red blood cells; Table 8, human red blood cells): ≤1%; MBC ([5]; read-out: MBC, MRSA-2): 200 µM; MBC ([5]; read-out: MRSA-2 MBC): 200 µM; MRSA-2 MBC ([5]; Table 8, a/b 2-/4-fold range in independent experiments): 200/>200 μM; MIC (A. baumannii 19606; Acinetobacter baumannii, 19606, read-out: A. baumannii 19606 MIC): > 100 µM; MIC (P. aeruginosa (PAO1); Pseudomonas aeruginosa, PAO1, read-out: PAO1 MIC): > 100 µM; MIC (K. pneumoniae 13883; Klebsiella pneumoniae, 13883, read-out: K. pneumoniae 13883 MIC): > 100 µM; MIC (E. coli UAEC-1; Escherichia coli, UAEC1, read-out: E. coli UAEC-1 MIC): > 100 µM"
Cc1nc2c(Br)cc(Br)c(O)c2nc1C [Compound 27],,12.5,12.5,,25,25,,≤1,≤1,125,125,,,6.25,> 100,> 100,> 100,> 100,,
Cc1nc2c(I)cc(I)c(O)c2nc1C [Compound 28],,1.56 to 3.13,2.35,,6.25,6.25,> 100,1.2,1.2,93.8,93.8,23.5,,,> 100,> 100,> 100,> 100,,MIC ([10]; Mycobacterium tuberculosis): > 50 µM; MIC [10]: >50 µM
